Data reported in article PMC4467398, “Preclinical antitumor activity of ST7612AA1: a new oral thiol-based histone deacetylase (HDAC) inhibitor” (Oncotarget, 2014).

Test system: DOHH2 and TMD8 DLBCL cells
Test: Gene expression profiling (HumanHT-12 v4 BeadChip, limma), ST7612AA1 300 nM 8 hrs vs DMSO
Assay type: cell-based, human

**Q.** How did the “AveExpr.ST7612 TANK (probe ILMN_1715069)” value (300 nM 8 hrs) turn out when `CC(=O)SCCCCC[C@H](NC(=O)[C@H]1CCC(=O)N1)C(=O)Nc1ccccc1` [ST7612AA1] was run?
**A.** Its value is 8.21E-01.

**Q.** What about the “AveExpr.ST7612 TBC1D7 (probe ILMN_1661622)” value (300 nM 8 hrs) of the same molecule?
**A.** The value was 7.33E-01.

**Q.** What about the “AveExpr.ST7612 TBC1D16 (probe ILMN_1758457)” value (300 nM 8 hrs) of the same molecule?
**A.** Its value is 7.24E-01.

**Q.** What about the “AveExpr.ST7612 TCEA2 (probe ILMN_1665526)” value (300 nM 8 hrs) of the same molecule?
**A.** The value was 8.50E-01.

**Q.** And the “AveExpr.ST7612 TCEAL3 (probe ILMN_1734190)” value (300 nM 8 hrs)?
**A.** Its value is 7.88E-01.

**Q.** What about the “AveExpr.ST7612 TCTN1 (probe ILMN_1685124)” value (300 nM 8 hrs) of the same molecule?
**A.** The value was 7.81E-01.

**Q.** And the “AveExpr.ST7612 TESK2 (probe ILMN_1654370)” value (300 nM 8 hrs)?
**A.** The value was 8.37E-01.

**Q.** And the “AveExpr.ST7612 TMEM14A (probe ILMN_1785191)” value (300 nM 8 hrs)?
**A.** Its value is 7.29E-01.

**Q.** And the “AveExpr.ST7612 TMEM49 (probe ILMN_1692754)” value (300 nM 8 hrs)?
**A.** Its value is 8.49E-01.

**Q.** And the “AveExpr.ST7612 TMEM154 (probe ILMN_2088124)” value (300 nM 8 hrs)?
**A.** The value was 6.89E-01.

**Q.** And the “AveExpr.ST7612 TMOD2 (probe ILMN_3250273)” value (300 nM 8 hrs)?
**A.** The value was 7.57E-01.

**Q.** And the “AveExpr.ST7612 TPRG1L (probe ILMN_1727479)” value (300 nM 8 hrs)?
**A.** Its value is 7.86E-01.

**Q.** And the “AveExpr.ST7612 TPST1 (probe ILMN_1651950)” value (300 nM 8 hrs)?
**A.** The value was 7.51E-01.

**Q.** And the “AveExpr.ST7612 TPST2 (probe ILMN_1695432)” value (300 nM 8 hrs)?
**A.** Its value is 7.18E-01.

**Q.** And the “AveExpr.ST7612 TRAFD1 (probe ILMN_1758250)” value (300 nM 8 hrs)?
**A.** The value was 8.52E-01.

**Q.** What about the “AveExpr.ST7612 UBE2A (probe ILMN_2307455)” value (300 nM 8 hrs) of the same molecule?
**A.** The value was 7.18E-01.

**Q.** And the “AveExpr.ST7612 UBTD1 (probe ILMN_1794914)” value (300 nM 8 hrs)?
**A.** The value was 8.56E-01.

**Q.** What about the “AveExpr.ST7612 UCP2 (probe ILMN_1685625)” value (300 nM 8 hrs) of the same molecule?
**A.** Its value is 7.30E-01.

**Q.** What about the “AveExpr.ST7612 UNC84A (probe ILMN_1772316)” value (300 nM 8 hrs) of the same molecule?
**A.** The value was 7.21E-01.

**Q.** And the “AveExpr.ST7612 UPLP (probe ILMN_3236765)” value (300 nM 8 hrs)?
**A.** Its value is 7.46E-01.

**Q.** What about the “AveExpr.ST7612 VASH2 (probe ILMN_1692698)” value (300 nM 8 hrs) of the same molecule?
**A.** The value was 7.31E-01.

**Q.** What about the “AveExpr.ST7612 VPS8 (probe ILMN_1678268)” value (300 nM 8 hrs) of the same molecule?
**A.** The value was 7.47E-01.

**Q.** And the “AveExpr.ST7612 WDR19 (probe ILMN_1655117)” value (300 nM 8 hrs)?
**A.** Its value is 7.77E-01.

**Q.** And the “AveExpr.ST7612 YPEL5 (probe ILMN_1711069)” value (300 nM 8 hrs)?
**A.** The value was 6.99E-01.

**Q.** And the “AveExpr.ST7612 ZDHHC8 (probe ILMN_1789492)” value (300 nM 8 hrs)?
**A.** The value was 8.85E-01.

**Q.** And the “AveExpr.ST7612 ZNF775 (probe ILMN_1691702)” value (300 nM 8 hrs)?
**A.** The value was 7.39E-01.

**Q.** What about the “log ratio 1999-08-31 (probe ILMN_1659953)” value (300 nM 8 hrs vs DMSO) of the same molecule?
**A.** Its value is 8.50E-01.

**Q.** And the “log ratio (probe ILMN_1816244)” value (300 nM 8 hrs vs DMSO)?
**A.** Its value is 7.08E-01.

**Q.** What about the “log ratio (probe ILMN_1827736)” value (300 nM 8 hrs vs DMSO) of the same molecule?
**A.** The value was 8.76E-01.

**Q.** And the “log ratio (probe ILMN_1909886)” value (300 nM 8 hrs vs DMSO)?
**A.** The value was 7.98E-01.

**Q.** And the “log ratio AACS (ILMN_1698554)” value (300 nM 8 hrs vs DMSO)?
**A.** The value was 6.24E-01.

**Q.** And the “log ratio ABCA7 (probe ILMN_1743205)” value (300 nM 8 hrs vs DMSO)?
**A.** Its value is 7.64E-01.

**Q.** And the “log ratio ABCC4 (ILMN_1788457)” value (300 nM 8 hrs vs DMSO)?
**A.** The value was -8.19E-01.

**Q.** What about the “log ratio ABCC4 (ILMN_2194009)” value (300 nM 8 hrs vs DMSO) of the same molecule?
**A.** The value was -8.58E-01.

**Q.** What about the “log ratio ABCE1 (ILMN_2330267)” value (300 nM 8 hrs vs DMSO) of the same molecule?
**A.** The value was -7.82E-01.

**Q.** What about the “log ratio ACAT2 (ILMN_1708672)” value (300 nM 8 hrs vs DMSO) of the same molecule?
**A.** Its value is -1.01E+00.

**Q.** What about the “log ratio ACOT7 (ILMN_2332250)” value (300 nM 8 hrs vs DMSO) of the same molecule?
**A.** The value was 6.55E-01.

**Q.** What about the “log ratio ACSL3 (ILMN_2360705)” value (300 nM 8 hrs vs DMSO) of the same molecule?
**A.** The value was 5.95E-01.

**Q.** And the “log ratio ACSL5 (ILMN_1705247)” value (300 nM 8 hrs vs DMSO)?
**A.** The value was -1.24E+00.

**Q.** What about the “log ratio ACSL5 (ILMN_2370882)” value (300 nM 8 hrs vs DMSO) of the same molecule?
**A.** The value was -9.69E-01.

**Q.** What about the “log ratio ADARB1 (probe ILMN_1679797)” value (300 nM 8 hrs vs DMSO) of the same molecule?
**A.** Its value is 7.60E-01.

**Q.** What about the “log ratio ADD3 (ILMN_1787378)” value (300 nM 8 hrs vs DMSO) of the same molecule?
**A.** The value was 6.27E-01.

**Q.** And the “log ratio ADD3 (ILMN_1814526)” value (300 nM 8 hrs vs DMSO)?
**A.** Its value is 6.45E-01.

**Q.** And the “log ratio ADD3 (ILMN_2311278)” value (300 nM 8 hrs vs DMSO)?
**A.** Its value is 6.14E-01.

**Q.** What about the “log ratio ADIPOR2 (ILMN_2224833)” value (300 nM 8 hrs vs DMSO) of the same molecule?
**A.** Its value is 6.41E-01.

**Q.** And the “log ratio ADNP2 (ILMN_2080751)” value (300 nM 8 hrs vs DMSO)?
**A.** Its value is 6.66E-01.

**Q.** What about the “log ratio ADRBK1 (ILMN_3307926)” value (300 nM 8 hrs vs DMSO) of the same molecule?
**A.** The value was -6.13E-01.

**Q.** And the “log ratio ADSS (ILMN_2092664)” value (300 nM 8 hrs vs DMSO)?
**A.** Its value is -8.15E-01.

**Q.** What about the “log ratio AFMID (ILMN_1707551)” value (300 nM 8 hrs vs DMSO) of the same molecule?
**A.** Its value is 6.36E-01.

**Q.** What about the “log ratio AGTPBP1 (ILMN_1718071)” value (300 nM 8 hrs vs DMSO) of the same molecule?
**A.** The value was 6.75E-01.

**Q.** And the “log ratio AKAP8 (ILMN_1741572)” value (300 nM 8 hrs vs DMSO)?
**A.** The value was -8.28E-01.

**Q.** What about the “log ratio AKAP13 (ILMN_2396956)” value (300 nM 8 hrs vs DMSO) of the same molecule?
**A.** The value was 6.04E-01.

**Q.** What about the “log ratio ALDH2 (probe ILMN_1793859)” value (300 nM 8 hrs vs DMSO) of the same molecule?
**A.** The value was 8.03E-01.

**Q.** And the “log ratio ALDH3A2 (ILMN_1794825)” value (300 nM 8 hrs vs DMSO)?
**A.** The value was 6.08E-01.

**Q.** And the “log ratio ALG14 (ILMN_2191822)” value (300 nM 8 hrs vs DMSO)?
**A.** Its value is -6.09E-01.

**Q.** What about the “log ratio ALOX5 (probe ILMN_1680996)” value (300 nM 8 hrs vs DMSO) of the same molecule?
**A.** The value was 8.46E-01.

**Q.** And the “log ratio ALS2 (ILMN_1750256)” value (300 nM 8 hrs vs DMSO)?
**A.** The value was 6.20E-01.

**Q.** And the “log ratio AMOT (probe ILMN_1792409)” value (300 nM 8 hrs vs DMSO)?
**A.** Its value is 7.65E-01.

**Q.** What about the “log ratio AMZ2 (ILMN_1801606)” value (300 nM 8 hrs vs DMSO) of the same molecule?
**A.** The value was 6.00E-01.

**Q.** And the “log ratio ANAPC13 (ILMN_1793894)” value (300 nM 8 hrs vs DMSO)?
**A.** Its value is -1.08E+00.

**Q.** And the “log ratio ANKLE1 (ILMN_3243457)” value (300 nM 8 hrs vs DMSO)?
**A.** The value was -8.03E-01.

**Q.** And the “log ratio ANKMY2 (ILMN_1784292)” value (300 nM 8 hrs vs DMSO)?
**A.** The value was 5.99E-01.

**Q.** And the “log ratio ANKRD6 (ILMN_2178587)” value (300 nM 8 hrs vs DMSO)?
**A.** Its value is 6.74E-01.

**Q.** And the “log ratio ANKRD41 (ILMN_2091590)” value (300 nM 8 hrs vs DMSO)?
**A.** Its value is -9.47E-01.

**Q.** And the “log ratio ANP32B (ILMN_1684293)” value (300 nM 8 hrs vs DMSO)?
**A.** The value was -9.66E-01.

**Q.** What about the “log ratio APAF1 (probe ILMN_1659463)” value (300 nM 8 hrs vs DMSO) of the same molecule?
**A.** Its value is 8.78E-01.

**Q.** What about the “log ratio APLP1 (probe ILMN_1763834)” value (300 nM 8 hrs vs DMSO) of the same molecule?
**A.** Its value is 8.17E-01.

**Q.** What about the “log ratio APLP2 (ILMN_1710482)” value (300 nM 8 hrs vs DMSO) of the same molecule?
**A.** Its value is 5.98E-01.

**Q.** What about the “log ratio ARFIP1 (ILMN_2403906)” value (300 nM 8 hrs vs DMSO) of the same molecule?
**A.** The value was 5.95E-01.

**Q.** And the “log ratio ARG2 (ILMN_1800898)” value (300 nM 8 hrs vs DMSO)?
**A.** Its value is 6.68E-01.

**Q.** And the “log ratio ARID2 (ILMN_2182335)” value (300 nM 8 hrs vs DMSO)?
**A.** Its value is -6.15E-01.

**Q.** And the “log ratio ARL6IP1 (probe ILMN_1708416)” value (300 nM 8 hrs vs DMSO)?
**A.** Its value is 6.93E-01.

**Q.** What about the “log ratio ARSB (ILMN_2242937)” value (300 nM 8 hrs vs DMSO) of the same molecule?
**A.** The value was -9.59E-01.

**Q.** And the “log ratio ATG2A (probe ILMN_1756006)” value (300 nM 8 hrs vs DMSO)?
**A.** Its value is 8.92E-01.

**Q.** And the “log ratio ATP6V0C (ILMN_1789005)” value (300 nM 8 hrs vs DMSO)?
**A.** Its value is 6.37E-01.
